These results are taken from patent US20150004637A1, “SYSTEMS AND METHODS FOR IMAGING AT HIGH SPATIAL AND/OR TEMPORAL PRECISION” (President and Fellows of Harvard College, priority 2011, published 2015).

Where two headings read alike, the source gives them in different places.

One data set concerns membrane potential. Conditions: literature values, cited from earlier work; for Approx ΔF/F per 100 mV: ΔR/R where comment says ratiometric.
Data set [1] in a line: Schiff base pKa and fluorescence of GPR / PROPS. Type of data set: physicochemical.

With Flash, in the data set with membrane potential, the Approx response time is 2.8 to 85 ms and the “Approx ΔF/F per 100 mV” value is listed as 5.1%.
Consider `CCCCCCCCN(CCCCCCCC)c1ccc2cc(/C=C/c3cc[n+](CCCS(=O)(=O)[O-])cc3)ccc2c1` [di-8-ANEPPS], for which, in the data set on membrane potential, the Approx response time was less than 1 ms and the “Approx ΔF/F per 100 mV” value is listed as 10%.
As for `CCCCN(CCCC)c1ccc(/C=C/C=C/C=C/c2cc[n+](CCCCS(=O)(=O)[O-])cc2)cc1` [RH237], in the data set with membrane potential, the Approx response time is recorded as less than 1 ms and the “Approx ΔF/F per 100 mV” value was 11%.
On to `CCCCCN(CCCCC)c1ccc(/C=C/C=C/c2cc[n+](CCCCS(=O)(=O)[O-])cc2)cc1` [RH421], for which, in the data set on membrane potential, the Approx response time is less than 1 ms and the “Approx ΔF/F per 100 mV” value is recorded as 21%.
Regarding `CCCCN(CCCC)c1ccc2cc(/C=C/c3cc[n+](CCCS(=O)(=O)[O-])cc3)ccc2c1` [di-4-ANEPPS], in the data set on membrane potential, the Approx response time is less than 1 ms and the “Approx ΔF/F per 100 mV” value is given as 8%.

B1: GPR: Green-absorbing proteorhodopsin, light-driven proton pump found in marine bacteria (protein)
chain: TMGKLLLILGSVIALPTFAAGGGDLDASDYTGVSFWLVTAALLASTVFFFVERDRVSAKWKTSLTVSGLVTGIAFWHYMYMRGVWIETGDSPTVFRYIDWLLTVPLLICEFYLILAAATNVAAGLFKKLLVGSLVMLVFGYMGEAGIMNAWPAFIIGCLAWVYMIYELYAGEGKSACNTASPSVQSAYNTMMAIIVFGWAIYPVGYFTGYLMGDGGSALNLNLIYNLADFVNKILFGLIIWNVAVKESSNA
modifications: /note=“Description of Unknown Green-absorbing proteorhodopsin polypeptide from an uncultured marine bacterium”
For the molecule B1, the figures for the “pKa of the Schiff Base” value in data set [1] and in data set [1] (listed as green proteorhodopsin) were approximately 12 and more than 12, respectively.
